Columns and labels:
[1] = cited from earlier work
[2] = Freeze/thaw stability of MB-102 in plasma samples (three cycles, −80° C. to room temperature), HPLC with fluorescence detection; type: physicochemical, human; conditions: for % Recovered / Mean Concentration: 3 Freeze/Thaw cycles
Method: (§1) For sample preparation by direct dilution, calibration standards containing 0.4, 1.0, 2.0, 4.0, 10.0, 16.0, 40.0, 100.0, 200.0, 400.0 ng/mL and quality controls at low, mid, and high level of MB-102 were prepared in 1% human plasma in PBS on the day of the validation study or sample analysis. The MB-102 dosing solution (18.6 mg/mL) used in the clinical study was diluted 1/100 first with 1% human plasma in PBS to form a stock solution of 186 μg/mL MB-102. This stock solution is diluted further with 1% human plasma in PBS to form a calibration standard working stock of 2000 ng/mL MB-102 for preparation of calibration standards. A QC working stock at (300 ng/mL) was also prepared from the 186 μg/mL MB-102 stock by dilution with 1% plasma in PBS. The low, mid, and high levels of quality controls were prepared from this QC working stock by dilution with 1% human plasma in PBS.
(§2) For the samples being analyzed by direct dilution, 10 μL of plasma sample (thawed to room temperature and mixed thoroughly) was diluted with 990 μL 1×PBS, mixed thoroughly for about 10 minutes, and centrifuged at 1000 rpm for 2 minutes. It was directly analyzed by HPLC.
(§3) Analyses were performed on a Waters Acquity UPLC H Class Chromatography System, equipped with column heater, sample heater/cooler, vacuum degasser, autosampler, fluorescence detector, and pump capable of delivering a binary gradient. An HPLC analytical column, Phenomenex Luna C18 (2), 4.6×250 mm, 5 μm, 100 Å (Phenomenex, Cat. No. 00G-4252-E0, S/N H15-133556), and a Security Guard Cartridge C18, 4×3 mm ID, 5 μm (Phenomenex, Cat. No. KJ0-4282) were used for the analysis. The Waters Empower 3 software equipped with the UPLC system was used for assay setup, analysis monitoring, and data processing. Two mobile phases, Mobile Phase A: 0.1% Trifluoroacetic acid in water (Fisher, Optima® Grade) and Mobile Phase B: 0.1% Trifluoroacetic acid in acetonitrile (Fisher Scientific, Optima® Grade) were used. The column temperature was set at 30° C., the autosampler temperature was set at 5° C., the excitation wavelength was set at 434 nm and the detection/emission wavelength was set at 556 nm. The counting rate was set at 5 point/sec; the PMT gain was set at 50; the flow cell temperature was ambient; the injection volume was 10 μL. MB-102 elutes at about 3.6 minutes using the gradient shown.
(§4) Using this HPLC method and sample preparation described herein, a validation study was carried out to determine the precision, accuracy, linearity, reproducibility, plasma and sample solution stability, freeze-thaw stability, lowest limits of quantitation, and specificity. The acceptance criterion was ±15% data deviation from normal values excepted at the lowest limit of quantitation (LLOQ) where it was set at ±20%. Samples were analyzed both in-house and at a GMP contract lab to ensure both the validity of the method and accuracy of the results.
(§5) MB-102 stability during sample handling upon long term storage of plasma samples (frozen at −80° C.) and short-term storage (bench top ambient temperature with/without light exposure, and 2-8° C.) of plasma solution was evaluated. Plasma samples were tested for three freeze/thaw cycles (−80° C. to room temperature). The stability of MB-102 in plasma solution at room temperature with/without light exposure, at 2-8° C., and at auto-sampler temperature (5° C.) was evaluated for time intervals of 24 and 48 hours.

[3] = Short-term stability of MB-102 in plasma solution (1% plasma/PBS) at 4° C. or room temperature with/without light, HPLC with fluorescence detection; type: physicochemical, human
Method: as §1, §2, §3, §4, §5

[4] = Pharmacokinetic analysis of MB-102 in plasma of clinical study participants, iohexol co-dosed as reference marker; type: in vivo, human
Method: as §2
as §3, with “The column temperature was set at 30° C., the autosampler temperature was set at 5° C., the excitation wavelength was set at 434 nm and the detection/emission wavelength was set at 556 nm. The counting rate was set at 5 point/sec; the PMT gain was set at 50; the flow cell temperature was ambient; the injection volume was 10 μL. MB-102 elutes at about 3.6 minutes using the gradient shown.” left out
In support of the clinical studies to evaluate the utility of MB-102 for kidney function monitoring via transdermal fluorescence sensing, the plasma samples were prepared from blood samples collected at 0, 5, 10, 15, 30, 60, 90, 120, 180, 240, 300, 360, 480, 600, and 720 minutes of each study participant. […]

[5] = QCs stored at 4° C. for 48 hours, MB-102 3.7 ng/mL
[6] = QCs stored at 4° C. for 48 hours, MB-102 37.9 ng/mL
[7] = QCs stored at 4° C. for 48 hours, MB-102 372.6 ng/mL
[8] = QCs stored at RT with light, MB-102 3.7 ng/mL
[9] = QCs stored at RT with light, MB-102 37.9 ng/mL
[10] = QCs stored at RT with light, MB-102 372.6 ng/mL
[11] = QCs stored at RT without light, MB-102 3.7 ng/mL
[12] = QCs stored at RT without light, MB-102 37.9 ng/mL
[13] = QCs stored at RT without light, MB-102 372.6 ng/mL
[14] = Sample solution at 4° C. for 48 hours, MB-102 1.76 ng/mL
[15] = Sample solution at 4° C. for 48 hours, MB-102 8.81 ng/mL
[16] = Sample solution at 4° C. for 48 hours, MB-102 61.87 ng/mL

CC(=O)N(CC(O)CO)c1c(I)c(C(=O)NCC(O)CO)c(I)c(C(=O)NCC(O)CO)c1I (centres unmarked) [Iohexol, iohexol]
metabolism ([1]; patient): not metabolized
route of elimination ([1]; without tubular renal secretion or reabsorption): entirely eliminated by simple glomerular filtration

Nc1nc(C(=O)N[C@H](CO)C(=O)O)c(N)nc1C(=O)N[C@H](CO)C(=O)O [MB-102, (2R,2′R)-2,2′-((3,6-diaminopyrazine-2,5-dicarbonyl)bis(azanediyl))bis(3-hydroxypropanoic acid)]
% Recovered ([2]; MB-102 1.76 ng/mL): 101.7%
Mean Concentration ([2]; MB-102 1.76 ng/mL): 1.79 ng/mL
% Recovered ([2]; MB-102 8.81 ng/mL): 100.0%
Mean Concentration ([2]; MB-102 8.81 ng/mL): 8.81 ng/mL
% Recovered ([2]; MB-102 61.87 ng/mL): 100.8%
Mean Concentration ([2]; MB-102 61.87 ng/mL): 62.34 ng/mL
stability over freeze/thaw cycles ([2]; three freeze/thaw cycles, plasma at −80° C.): very stable
% Recovered [3, 5]: 101.1%
Mean Concentration [3, 5]: 3.74 ng/mL
% Recovered [3, 6]: 99.1%
Mean Concentration [3, 6]: 37.55 ng/mL
% Recovered [3, 7]: 100.2%
Mean Concentration [3, 7]: 373.50 ng/mL
% Recovered [3, 8]: 101.6%
Mean Concentration [3, 8]: 3.76 ng/mL
% Recovered [3, 9]: 96.0%
Mean Concentration [3, 9]: 36.40 ng/mL
% Recovered [3, 10]: 97.9%
Mean Concentration [3, 10]: 364.59 ng/mL
% Recovered [3, 11]: 104.6%
Mean Concentration [3, 11]: 3.87 ng/mL
% Recovered [3, 12]: 98.0%
Mean Concentration [3, 12]: 37.15 ng/mL
% Recovered [3, 13]: 100.0%
Mean Concentration [3, 13]: 372.58 ng/mL
% Recovered [3, 14]: 99.4%
Mean Concentration [3, 14]: 1.75 ng/mL
% Recovered [3, 15]: 98.3%
Mean Concentration [3, 15]: 8.66 ng/mL
% Recovered [3, 16]: 98.3%
Mean Concentration [3, 16]: 60.84 ng/mL
degradation of MB-102 ([3]; solution stored at room temperature with light for 48 hours): 1-2%
sample solution stability ([3]; stored at 4° C. for up to 48 hours): very stable
sample solution stability ([3]; stored at room temperature without light for up to 48 hours): very stable
clearance rate ([4]; 12 subjects, FIG. 7): varies among patients
clearance rate compared with iohexol ([4]; three subjects, iohexol co-dosed, FIGS. 8a-8c): parallel to that of iohexol

From US11674965B2, “Method for preparing and analyzing fluorescent compounds in plasma” (MediBeacon, Inc., priority 2017, dated 2023)
